Data as given in patent US9512180B2, “Compstatin analogs” (THE REGENTS OF THE UNIVERSITY OF CALIFORNIA, priority 2012, dated 2016).
pIC50: −log10 of the molar value. Values joined by “and” are separate entries in the source; they are usually repeats but may differ in a detail not shown here. Equal values may be shown once. Marks after values point to notes of the source that are not given here. Bridge positions count the residues as written; N and C are the ends. Square brackets hold non-standard residues; d marks the D form. Peptide text beside a SMILES is read from it. Trp(1-Me) = Cn1cc(C[C@H](N)C(=O)O)c2ccccc21

Legend:
Human fetal RPE cells = assay: RPE cell-based assay: confocal analysis of deposit-associated C5b-9 (normalized to ApoE); settings: peptide 1 μM; for deposit-associated C5b-9 (C5b-9/ApoE) relative to positive control: ~24 hrs, mean±S.E.M., RPE cultures of three donors; for Confocal Imaging % of positive control: deposit-associated C5b-9 normalized to ApoE, Mean (S.E.M.)
Procedure: The in vitro drusen biogenesis model was employed. Human fetal RPE cells (Advanced Bioscience Resources, Alameda, Calif.) were cultured on Millipore HA porous supports (Millipore, Cat # PIHA 01250) in Miller medium (Maminishkis et al., 2006) supplemented with 5% fetal calf serum (FCS). Cultures derived from three different donor eyes were employed. Cells were rinsed with warm, sterile PBS and the insert membrane was excised with a scalpel and cut into small (˜4 mm^2) pieces which were placed in wells of a 96-well plate. To minimize effects of inter-culture variability, samples prepared from a single membrane were utilized for each experiment. The samples were rinsed in PBS and then exposed individually to the library of compstatin family peptides at 1 μM in FCS-free Miller medium containing 10% human complement serum (Innovative Research, Cat # IPLA-CSER AB, Lot # L12402). In preliminary experiments, compstatin family Peptides I, III, VI, VII, VIII, IX, and Parent (Table 7), were tested in the RPE cell assay at 100 μM and titrated by C5b-9 ELISA over a concentration range of 0.04-130 μM. […] Also from this assessment, Peptide VI, as well as Peptides I and III, were selected for further studies. Peptides I and III were chosen for comparative studies to Peptide VI, because they contain an arginine residue at position 1. The goal was to determine whether peptides containing arginine at position −1 (Peptide VI) or at position 1 (Peptides I and III) were potent complement inhibitors using the RPE cell assay and had improved aqueous solubility compared to previously known potent analogs. Negative control cells were exposed to Miller medium+5% FCS; positive control cells were exposed to Miller medium+10% human complement serum without inhibitory peptides. Experimental and control medium/inhibitor solutions were pre-mixed on a rocker at room temperature for 30 min, then warmed to 37° C., prior to placement on the samples and incubation for ˜24 hrs at 37° C. in a 7.0% CO2 incubator. Following the incubation period, the medium was removed and stored frozen prior to ELISA analysis. The cell/membrane samples were rinsed in PBS, fixed in cold 4% paraformaldehyde (PFA) in PBS for 20 min, and stored in 0.4% PFA until use in immunohistochemical assays.
Fixed samples were rinsed several times in PBS, embedded in 10% agarose (Type XI, Sigma-Aldrich, Cat # A3038) and sectioned at 100 μm on a vibratome. Sections were blocked with normal donkey serum ( 1/20 in PBT: PBS containing 0.5% bovine serum albumin and 0.1% Triton X-100) overnight at 4° C. The sections were then co-incubated in two primary antibodies (polyclonal goat anti-ApoE, Millipore Cat # AB947; 1/1000 in PBT, and mouse monoclonal anti-05b-9 aEll, Dako Cat # M0777; 1/200 in PBT) overnight at 4° C., then rinsed in PBT and co-incubated in secondary antibodies (Alexa Fluor 546-conjugated donkey anti-goat IgG and Alexa Fluor 488-conjugated donkey anti-mouse IgG, both 1/200 in PBT; Life Technologies Cat # A-11056 and # A-21202) overnight at 4° C. Sections were rinsed in PBT, stained with Hoechst 33342 (Life Technologies Cat # H3570), and mounted on slides with Prolong Gold (Life Technologies Cat # P36930).
Samples were imaged on an Olympus FV1000 confocal laser scanning microscope. A total of 154 single-plane images were acquired at a resolution of 1024×768 pixels and the digital image files were saved in 24-bit tiff format. Digital image analysis was performed with MetaMorph software (Molecular Devices, Sunnyvale, Calif.). For the analysis, a standard measurement region, which included both the RPE cell monolayer and all of the adjacent sub-cellular deposits, was applied to each image. The Set Threshold Color Tool was utilized to analyze each color channel separately; the threshold tool creates a boundary around the objects being measured (i.e., sub-cellular deposits) on the basis of color intensity. […]

[1] = RP-HPLC relative lipophilicity (retention factor k, log k); format: physicochemical
Procedure: The effect of the hydrophobic content of compstatin family peptides on relative lipophilicity was evaluated using RP-HPLC, a widely applied indirect technique for the determination of the lipophilicity of drugs and drug candidates. The determination of log P by RP-HPLC is based on the measurement of the retention factor k between the mobile and stationary phase (Eq. 7) of the investigated compound:
[formula] where tR is the retention time of the analyte, and to is the elution time of an unretained analyte. The logarithm of the retention factor is linearly correlated with the logarithm of the partition coefficient log P=a log k+b (8). where a and b are the slope and intercept of the linear equation.
The determination of log P values requires calibration using structurally related compounds, and is beyond the scope of this study. Instead the log k values were used to indicate the relative lipophilicities of this compstatin peptide family.
HPLC experiments were carried out using an Agilent 1100 HPLC with UV detection at 280 nm at 25° C. Separations were performed on a Waters (Milford, Mass.) 4.6×150 mm XTerra MS C18 column with 5 μm pore size using a mobile phase of A: 10 mM phosphate buffer pH=7.4 containing 1% TFA, and B: acetonitrile. The purity of the peptides was verified by an isocratic separation at 28% B and a flow rate of 1 mL/min. Solutions containing 0.6-0.8 mg/mL of Peptides I, III, VI, IX and the parent peptide were prepared in methanol and diluted 5-times with the eluent. All five peptides eluted as single peaks indicating a high degree of purity (FIG. 10).
For the determination of the relative lipophilicities a solution containing each of the peptides was prepared from the stock solutions and injected in triplicate. […] A 0.5 mg/mL solution of aspartic acid was used as the unretained analyte for the determination of the column dead time, 1.439±0.003 min.
RP-HPLC was used to measure the hydrophobicity/lipophilicity content of the compstatin family peptides. The retention of a compound in RP-HPLC depends on its hydrophobicity/lipophilicity content, and is correlated to the octanol-water partition ratio. Lipophilicity describes the partitioning of a compound between an aqueous and a lipidic/hydrophobic environment, and is an essential physicochemical parameter to determine pharmacokinetic behavior according to ADME (absorption, distribution, metabolism, excretion) characterization. Because the compstatin family peptides consist of a hydrophobic and a polar surface, their ability to bind to the hydrophobic cavity of C3, while maintaining a solvent-exposed face has been evaluated here as lipohilicity content, measured by RP-HPLC. In addition, lipohilicity is inversely proportional to aqueous solubility, and therefore can be used to estimate solubility of the peptides in their free (unbound) state.

complement activation = settings: alternative pathway-mediated erythrocyte lysis; cited from earlier work

SMILES | deposit-associated C5b-9 (C5b-9/ApoE) relative to positive control (Human fetal RPE cells; 10% human complement serum) | Confocal Imaging % of positive control (Human fetal RPE cells) | Retention factor (k) [1] | logk [1] | relative lipophilicity ([1]; isocratic 24% acetonitrile, pH=7.4 phosphate buffer) | pIC50 (complement activation) | Deposit-associated C5b9 (green channel) immunofluorescence, Integrated Area (Human fetal RPE cells; RPE 020207, 10% human complement serum, one value per image)
CC[C@H](C)[C@H](N)C(=O)N[C@H]1CSSC[C@@H](C(=O)N[C@H](C(N)=O)[C@@H](C)O)NC(=O)[C@H](CCCN=C(N)N)NC(=O)[C@H](Cc2cnc[nH]2)NC(=O)[C@H](Cc2cnc[nH]2)NC(=O)CNC(=O)[C@H](Cc2c[nH]c3ccccc23)NC(=O)[C@H](CC(=O)O)NC(=O)[C@H](CCC(N)=O)NC(=O)[C@H](C(C)C)NC(=O)[C@H](C(C)C)NC1=O [Parent, ICV VQDWGH HRCT-NH2, reference compound] | 83.2±5.9% | 83.19 (5.92) % of positive control | 2.472 | 0.393 | least lipophilic | 4.92 | –
CC(=O)N[C@@H](CCCNC(=N)N)C(=O)N[C@H]1CSSC[C@@H](C(=O)N[C@H](C(N)=O)[C@@H](C)O)NC(=O)[C@H](CCCNC(=N)N)NC(=O)[C@H](Cc2c[nH]cn2)NC(=O)[C@H](C)NC(=O)CNC(=O)[C@H](Cc2c[nH]c3ccccc23)NC(=O)[C@H](CC(=O)O)NC(=O)[C@H](CCC(N)=O)NC(=O)[C@H](Cc2c[nH]c3ccccc23)NC(=O)[C@H](C(C)C)NC1=O [Peptide I, Ac- RCV WQDWGA HRCT-NH2] (Ac-RCVWQDWGAHRCT-NH2; disulfide 2-12) | 55.3±12.3% | 55.27 (12.30)^a % of positive control | 2.828 | 0.451 | – | – | –
CC(=O)N[C@@H](CCCNC(=N)N)C(=O)N[C@H]1CSSC[C@@H](C(=O)N[C@H](C(N)=O)[C@@H](C)O)NC(=O)[C@H](CCCNC(=N)N)NC(=O)[C@H](Cc2c[nH]cn2)NC(=O)[C@H](C)NC(=O)CNC(=O)[C@H](Cc2c[nH]c3ccccc23)NC(=O)[C@H](CC(=O)O)NC(=O)[C@H](CCC(N)=O)NC(=O)[C@H](Cc2cn(C)c3ccccc23)NC(=O)[C@H](C(C)C)NC1=O [Peptide III, Ac- RCV meWQDWGA HRCT-NH2] (Ac-RCV[Trp(1-Me)]QDWGAHRCT-NH2; disulfide 2-12) | 20.0±6.8% | 19.98 (6.84) % of positive control | 6.165 | 0.790 | – | – | –
CC[C@H](C)[C@H](NC(=O)[C@H](CO)NC(=O)[C@H](CCCNC(=N)N)NC(C)=O)C(=O)N[C@H]1CSSC[C@@H](C(=O)N[C@H](C(N)=O)[C@@H](C)O)NC(=O)[C@H](CCCNC(=N)N)NC(=O)[C@H](Cc2c[nH]cn2)NC(=O)[C@H](C)NC(=O)CNC(=O)[C@H](Cc2c[nH]c3ccccc23)NC(=O)[C@H](CC(=O)O)NC(=O)[C@H](CCC(N)=O)NC(=O)[C@H](Cc2cn(C)c3ccccc23)NC(=O)[C@H](C(C)C)NC1=O [Peptide VI, Ac-RS-ICV meWQDWGA HRCT-NH2] | 14.9±5.6% | 14.85 (5.61) % of positive control | 9.913 | 0.996 | – | – | 86318 pixels and 70370 pixels and 77727 pixels and 91254 pixels and 59969 pixels
